A word on the pKi: it is the Ki on a negative log10 scale, so that one unit is a factor of ten. The low end stands for a high Ki, the high end for a low Ki.

pKi: −log10 of the molar value.

This is an account of results in publication PMC2754381 (Biochemistry, 2009).

In the assay the target is MtOMPDC (wildtype OMPDC from Methanothermobacter thermautotrophicus) (Methanothermobacter thermautotrophicus, UniProt O26232). Kind of assay: OMP decarboxylation followed at […] nm. The assay is classed as biochemical.
Sequence of MtOMPDC (wildtype OMPDC from Methanothermobacter thermautotrophicus) (O26232 whole entry): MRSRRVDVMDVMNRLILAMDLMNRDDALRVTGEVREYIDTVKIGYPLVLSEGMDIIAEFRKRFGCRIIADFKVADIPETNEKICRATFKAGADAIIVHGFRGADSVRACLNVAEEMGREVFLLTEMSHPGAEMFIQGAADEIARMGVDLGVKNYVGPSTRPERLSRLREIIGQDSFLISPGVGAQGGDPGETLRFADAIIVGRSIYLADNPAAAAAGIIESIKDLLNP

`O=c1ccn([C@@H]2O[C@H](COP(=O)(O)O)[C@@H](O)[C@H]2O)c(=O)[nH]1` [UMP, uridine 5′-monophosphate] gave a pKi of around 4.00.
